This passage reports melting point results from patent publication US6458783B1, “Non-imidazole benzodiazepine inhibitors of farnesyl protein transferase” (Bristol-Myers Squibb Company, priority 1997, dated 2002).

Where a name gives a salt, the structure may show the parent alone.

Take `NC(CS)CN1CCN(C(=O)c2cccc3ccccc23)Cc2ccccc21` (racemic) (as salt: hydrochloride) [Example 1, (+,−)-1-(2-Amino-3-mercaptopropyl)-2,3,4,5-tetrahydro-4-(naphthalenylcarbonyl)-1H-1,4-benzodiazepine, Monohydrochloride]: the melting point (commonly the temperature, or range, at which the solid turns liquid) is 140 °C.
